Experimental data: article PMC10337138 (Acta Neuropathologica Communications, 2023)

Assays:
Details in all cases: 1 mM ATP; inhibitor
[1] = molecular target: PINK1 (Homo sapiens, UniProt Q9BXM7)
Protocol: (§1) Kinase selectivity panel Kinome profiling was conducted by AssayQuant Technologies (Marlboro, MA) using Sox chromophore technology and Sox-based peptide substrates developed for human kinases in a 384-well format. Compounds were tested at 1 µM in the presence of 1 mM ATP.

[2] = molecular target: T1, FYNB (Homo sapiens, UniProt P06241)
T1 construct: gene FYN
T1 sequence (P06241 whole entry): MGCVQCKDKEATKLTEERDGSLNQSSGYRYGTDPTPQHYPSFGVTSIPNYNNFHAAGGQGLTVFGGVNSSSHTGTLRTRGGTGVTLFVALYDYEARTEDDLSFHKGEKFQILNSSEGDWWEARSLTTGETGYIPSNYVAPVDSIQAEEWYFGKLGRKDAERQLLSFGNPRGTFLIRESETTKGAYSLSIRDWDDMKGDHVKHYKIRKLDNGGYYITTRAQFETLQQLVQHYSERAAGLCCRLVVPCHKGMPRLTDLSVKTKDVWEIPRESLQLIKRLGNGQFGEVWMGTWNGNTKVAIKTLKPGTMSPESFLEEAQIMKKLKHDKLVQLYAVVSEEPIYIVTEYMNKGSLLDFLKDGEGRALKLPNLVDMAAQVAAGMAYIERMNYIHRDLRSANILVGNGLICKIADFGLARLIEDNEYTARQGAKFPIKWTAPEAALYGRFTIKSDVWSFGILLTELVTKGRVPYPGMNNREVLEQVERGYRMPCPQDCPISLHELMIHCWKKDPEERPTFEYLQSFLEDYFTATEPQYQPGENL
Protocol: as §1

[3] = molecular target: MYLK2 (Homo sapiens, UniProt Q9H1R3)
Protocol: as §1

[4] = molecular target: DDR2 (Homo sapiens, UniProt Q16832)
Protocol: as §1

[5] = molecular target: CDK9/T1 (Homo sapiens, UniProt P50750)
Protocol: as §1

[6] = molecular target: HCK (Homo sapiens, UniProt P08631)
Protocol: as §1

[7] = molecular target: RPS6KA5/MSK1 (Homo sapiens, UniProt O75582)
Protocol: as §1

[8] = molecular target: JAK3(JH1) (Homo sapiens, UniProt P52333)
Chain of JAK3(JH1) (P52333 whole entry): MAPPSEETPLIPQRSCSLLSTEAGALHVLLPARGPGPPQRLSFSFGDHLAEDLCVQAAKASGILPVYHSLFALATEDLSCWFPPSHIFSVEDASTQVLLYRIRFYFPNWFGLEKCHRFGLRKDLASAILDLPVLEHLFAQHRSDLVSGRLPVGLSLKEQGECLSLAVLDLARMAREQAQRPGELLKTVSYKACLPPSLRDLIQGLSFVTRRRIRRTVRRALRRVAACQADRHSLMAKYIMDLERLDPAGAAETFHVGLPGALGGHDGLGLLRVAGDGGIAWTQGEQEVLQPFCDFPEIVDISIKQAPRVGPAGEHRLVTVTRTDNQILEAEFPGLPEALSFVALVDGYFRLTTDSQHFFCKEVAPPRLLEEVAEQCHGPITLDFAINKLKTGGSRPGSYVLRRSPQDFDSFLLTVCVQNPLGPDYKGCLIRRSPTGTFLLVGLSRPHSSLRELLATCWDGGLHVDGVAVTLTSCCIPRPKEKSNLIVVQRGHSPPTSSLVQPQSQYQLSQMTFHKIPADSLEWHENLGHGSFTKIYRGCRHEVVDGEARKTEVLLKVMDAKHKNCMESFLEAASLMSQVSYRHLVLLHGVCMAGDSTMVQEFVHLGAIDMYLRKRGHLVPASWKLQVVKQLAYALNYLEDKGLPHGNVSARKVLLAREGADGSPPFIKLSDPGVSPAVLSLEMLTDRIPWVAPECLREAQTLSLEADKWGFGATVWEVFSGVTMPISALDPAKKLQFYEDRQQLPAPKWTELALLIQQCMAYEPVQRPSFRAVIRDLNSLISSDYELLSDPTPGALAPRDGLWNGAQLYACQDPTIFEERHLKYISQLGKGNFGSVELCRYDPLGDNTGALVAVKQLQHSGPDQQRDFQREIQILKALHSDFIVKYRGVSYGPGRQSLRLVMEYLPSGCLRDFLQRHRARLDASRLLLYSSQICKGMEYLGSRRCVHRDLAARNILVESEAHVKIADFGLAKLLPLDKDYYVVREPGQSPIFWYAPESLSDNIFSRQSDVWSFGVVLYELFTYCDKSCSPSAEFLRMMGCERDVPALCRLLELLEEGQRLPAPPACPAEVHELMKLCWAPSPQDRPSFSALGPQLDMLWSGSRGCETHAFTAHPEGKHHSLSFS
Protocol: as §1

[9] = molecular target: MAP3K10 (Homo sapiens, UniProt Q02779)
Chain of MAP3K10 (Q02779 whole entry): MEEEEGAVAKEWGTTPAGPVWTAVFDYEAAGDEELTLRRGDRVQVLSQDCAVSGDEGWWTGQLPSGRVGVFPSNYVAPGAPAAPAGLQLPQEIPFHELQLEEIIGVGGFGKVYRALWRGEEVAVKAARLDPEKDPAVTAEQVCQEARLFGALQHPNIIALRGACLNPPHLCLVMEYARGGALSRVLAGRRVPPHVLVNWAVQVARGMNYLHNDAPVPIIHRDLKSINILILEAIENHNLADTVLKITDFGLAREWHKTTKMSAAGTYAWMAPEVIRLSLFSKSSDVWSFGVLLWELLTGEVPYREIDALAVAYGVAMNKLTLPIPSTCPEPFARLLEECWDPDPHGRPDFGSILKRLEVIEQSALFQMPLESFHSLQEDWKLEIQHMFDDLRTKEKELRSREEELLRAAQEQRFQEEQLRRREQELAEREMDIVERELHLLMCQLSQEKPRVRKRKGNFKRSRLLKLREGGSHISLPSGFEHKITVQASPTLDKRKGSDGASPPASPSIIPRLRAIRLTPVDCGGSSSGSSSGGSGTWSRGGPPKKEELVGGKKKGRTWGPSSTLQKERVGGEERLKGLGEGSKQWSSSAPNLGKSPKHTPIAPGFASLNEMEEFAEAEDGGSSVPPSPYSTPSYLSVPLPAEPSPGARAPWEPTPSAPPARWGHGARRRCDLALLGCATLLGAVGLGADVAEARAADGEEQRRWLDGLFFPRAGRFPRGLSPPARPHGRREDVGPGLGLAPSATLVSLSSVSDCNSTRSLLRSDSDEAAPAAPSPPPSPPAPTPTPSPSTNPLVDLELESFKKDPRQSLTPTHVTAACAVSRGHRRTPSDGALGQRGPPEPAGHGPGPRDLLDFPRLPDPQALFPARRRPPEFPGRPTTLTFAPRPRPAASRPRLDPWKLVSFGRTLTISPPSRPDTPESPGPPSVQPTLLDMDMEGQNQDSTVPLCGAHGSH
Protocol: as §1

[10] = molecular target: T2, CAMK1A (Homo sapiens, UniProt Q14012)
T2 construct: gene CAMK1
Protocol: as §1

[11] = molecular target: TNK1 (Homo sapiens, UniProt Q13470)
Chain of TNK1 (Q13470 whole entry): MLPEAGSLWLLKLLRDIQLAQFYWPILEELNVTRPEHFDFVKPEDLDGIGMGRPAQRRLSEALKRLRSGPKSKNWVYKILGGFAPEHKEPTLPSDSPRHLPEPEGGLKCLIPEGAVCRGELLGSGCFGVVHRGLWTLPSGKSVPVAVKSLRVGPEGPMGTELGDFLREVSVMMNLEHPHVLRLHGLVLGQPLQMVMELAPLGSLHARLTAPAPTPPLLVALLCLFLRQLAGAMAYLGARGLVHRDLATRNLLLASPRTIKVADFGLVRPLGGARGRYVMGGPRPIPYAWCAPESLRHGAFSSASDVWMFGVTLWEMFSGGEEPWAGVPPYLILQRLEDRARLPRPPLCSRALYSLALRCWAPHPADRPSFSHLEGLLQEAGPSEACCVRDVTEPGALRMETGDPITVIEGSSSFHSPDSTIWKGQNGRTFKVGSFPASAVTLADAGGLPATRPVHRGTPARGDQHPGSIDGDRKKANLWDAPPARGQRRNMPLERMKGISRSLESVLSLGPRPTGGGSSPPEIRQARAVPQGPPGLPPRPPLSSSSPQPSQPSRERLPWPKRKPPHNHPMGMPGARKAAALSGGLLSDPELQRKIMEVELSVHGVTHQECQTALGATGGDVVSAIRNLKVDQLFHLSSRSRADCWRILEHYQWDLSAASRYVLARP
Protocol: as §1

[12] = molecular target: LATS1 (Homo sapiens, UniProt O95835)
Protocol: as §1

[13] = molecular target: MAP4K2/GCK (Homo sapiens, UniProt Q12851)
Protocol: as §1

[14] = molecular target: T3, TOPK (Homo sapiens, UniProt Q96KB5)
T3 construct: gene PBK
Protocol: as §1

[15] = molecular target: DYRK2 (Homo sapiens, UniProt Q92630)
Protocol: as §1

[16] = molecular target: CAMK4 (Homo sapiens, UniProt Q16566)
Protocol: as §1

[17] = molecular target: PRKD2 (Homo sapiens, UniProt Q9BZL6)
Protocol: as §1

[18] = molecular target: T4, NDR2 (Homo sapiens, UniProt Q9Y2H1)
T4 construct: gene STK38L
Protocol: as §1

[19] = molecular target: NTRK1 (Homo sapiens, UniProt P04629)
Protocol: as §1

[20] = molecular target: PNCK/CAMK1B (Homo sapiens, UniProt Q6P2M8)
Chain of PNCK/CAMK1B (Q6P2M8 whole entry): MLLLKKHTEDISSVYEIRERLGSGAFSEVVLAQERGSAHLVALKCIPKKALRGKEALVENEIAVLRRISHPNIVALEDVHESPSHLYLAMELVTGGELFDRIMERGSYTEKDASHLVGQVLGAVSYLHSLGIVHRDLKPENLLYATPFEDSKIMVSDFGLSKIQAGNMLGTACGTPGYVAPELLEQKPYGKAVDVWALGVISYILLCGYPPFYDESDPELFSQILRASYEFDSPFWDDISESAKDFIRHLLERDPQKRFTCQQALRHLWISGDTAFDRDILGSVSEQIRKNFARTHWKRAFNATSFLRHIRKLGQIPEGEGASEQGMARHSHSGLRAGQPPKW
Protocol: as §1

[21] = molecular target: T5, FYNA (Homo sapiens, UniProt P06241)
T5 construct: gene FYN
T5 sequence (P06241 whole entry): as the sequence (P06241 whole entry) above
Protocol: as §1

[22] = molecular target: AKT3 (Homo sapiens, UniProt Q9Y243)
Protocol: as §1

[23] = molecular target: CDK17 (Homo sapiens, UniProt Q00537)
Protocol: as §1

[24] = molecular target: PRKCZ/PKCZ (Homo sapiens, UniProt Q05513)
Protocol: as §1

[25] = molecular target: KDR (Homo sapiens, UniProt P35968)
Protocol: as §1

[26] = molecular target: SIK3 (Homo sapiens, UniProt Q9Y2K2)
Protocol: as §1

[27] = molecular target: TYK2(JH1) (Homo sapiens, UniProt P29597)
Protocol: as §1

[28] = molecular target: AURKB/AURB (Homo sapiens, UniProt Q96GD4)
Protocol: as §1

[29] = molecular target: CDK2/E1 (Homo sapiens, UniProt P24941)
Protocol: as §1

[30] = molecular target: TNIK (Homo sapiens, UniProt Q9UKE5)
Protocol: as §1

[31] = molecular target: T6, NDR1 (Homo sapiens, UniProt Q15208)
T6 construct: gene STK38
T6 sequence (Q15208 whole entry): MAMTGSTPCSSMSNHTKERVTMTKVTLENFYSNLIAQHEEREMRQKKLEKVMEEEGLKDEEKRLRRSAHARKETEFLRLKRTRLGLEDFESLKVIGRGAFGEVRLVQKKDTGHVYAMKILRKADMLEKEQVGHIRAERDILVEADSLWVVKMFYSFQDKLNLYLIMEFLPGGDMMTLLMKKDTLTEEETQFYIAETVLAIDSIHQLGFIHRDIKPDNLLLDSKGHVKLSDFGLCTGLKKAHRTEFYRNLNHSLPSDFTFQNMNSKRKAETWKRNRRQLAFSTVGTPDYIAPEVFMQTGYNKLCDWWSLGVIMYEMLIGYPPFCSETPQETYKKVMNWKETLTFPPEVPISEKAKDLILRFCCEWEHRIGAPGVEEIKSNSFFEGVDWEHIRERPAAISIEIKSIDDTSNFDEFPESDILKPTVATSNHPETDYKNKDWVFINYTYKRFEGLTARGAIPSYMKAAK
Protocol: as §1

[32] = molecular target: T7, CSNK1AL/CK1A2 (Homo sapiens, UniProt Q8N752)
T7 construct: gene CSNK1A1L
Protocol: as §1

[33] = molecular target: JAK2(JH1JH2) (Homo sapiens, UniProt O60674)
Protocol: as §1

[34] = molecular target: T8, DMPK1 (Homo sapiens, UniProt Q09013)
T8 construct: gene DMPK
Protocol: as §1

[35] = molecular target: LIMK1 (Homo sapiens, UniProt P53667)
Protocol: as §1

[36] = molecular target: CAMK1G (Homo sapiens, UniProt Q96NX5)
Protocol: as §1

[37] = molecular target: DAPK2 (Homo sapiens, UniProt Q9UIK4)
Chain of DAPK2 (Q9UIK4 whole entry): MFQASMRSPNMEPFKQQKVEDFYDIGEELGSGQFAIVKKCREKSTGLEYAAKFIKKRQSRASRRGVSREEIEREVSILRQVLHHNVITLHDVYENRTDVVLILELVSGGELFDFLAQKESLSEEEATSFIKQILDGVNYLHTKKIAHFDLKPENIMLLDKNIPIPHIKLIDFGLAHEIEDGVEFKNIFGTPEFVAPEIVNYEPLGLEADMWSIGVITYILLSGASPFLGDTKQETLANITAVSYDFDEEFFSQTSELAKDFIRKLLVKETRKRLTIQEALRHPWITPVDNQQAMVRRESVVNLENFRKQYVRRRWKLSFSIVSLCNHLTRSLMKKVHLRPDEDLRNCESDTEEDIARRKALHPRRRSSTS
Protocol: as §1

[38] = molecular target: PRKAA1/AMPK111 (Homo sapiens, UniProt Q13131)
Protocol: as §1

C=CC(=O)N1CCC[C@@H](n2nc(-c3ccc(Oc4ccccc4)cc3)c3c(N)ncnc32)C1 [Ibrutinib]
1 µM GBD00276 (ibrutinib), % inhibition [1]: -6.021% | 1 µM GBD00276 (ibrutinib), % inhibition [2]: 30.61% | 1 µM GBD00276 (ibrutinib), % inhibition [3]: -0.5778% | 1 µM GBD00276 (ibrutinib), % inhibition [4]: 20.22% | 1 µM GBD00276 (ibrutinib), % inhibition [5]: -10.19% | 1 µM GBD00276 (ibrutinib), % inhibition [6]: 42.82% | 1 µM GBD00276 (ibrutinib), % inhibition [7]: -5.427% | 1 µM GBD00276 (ibrutinib), % inhibition [8]: 10.34% | 1 µM GBD00276 (ibrutinib), % inhibition [9]: -7.966% | 1 µM GBD00276 (ibrutinib), % inhibition [10]: -26.28% | 1 µM GBD00276 (ibrutinib), % inhibition [11]: -7.554% | 1 µM GBD00276 (ibrutinib), % inhibition [12]: 11.97% | 1 µM GBD00276 (ibrutinib), % inhibition [13]: 1.626% | 1 µM GBD00276 (ibrutinib), % inhibition [14]: -5.913% | 1 µM GBD00276 (ibrutinib), % inhibition [15]: 14.5% | 1 µM GBD00276 (ibrutinib), % inhibition [16]: 3.011% | 1 µM GBD00276 (ibrutinib), % inhibition [17]: -18.67% | 1 µM GBD00276 (ibrutinib), % inhibition [18]: 11.14% | 1 µM GBD00276 (ibrutinib), % inhibition [19]: 11.58% | 1 µM GBD00276 (ibrutinib), % inhibition [20]: -21.96% | 1 µM GBD00276 (ibrutinib), % inhibition [21]: 15.99% | 1 µM GBD00276 (ibrutinib), % inhibition [22]: 18.375% | 1 µM GBD00276 (ibrutinib), % inhibition [23]: 5.795% | 1 µM GBD00276 (ibrutinib), % inhibition [24]: 7.244% | 1 µM GBD00276 (ibrutinib), % inhibition [25]: 29.01% | 1 µM GBD00276 (ibrutinib), % inhibition [26]: -15.95% | 1 µM GBD00276 (ibrutinib), % inhibition [27]: 12.87% | 1 µM GBD00276 (ibrutinib), % inhibition [28]: 7.598% | 1 µM GBD00276 (ibrutinib), % inhibition [29]: 1.085% | 1 µM GBD00276 (ibrutinib), % inhibition [30]: -56.63% | 1 µM GBD00276 (ibrutinib), % inhibition [31]: 6.051% | 1 µM GBD00276 (ibrutinib), % inhibition [32]: 14.53% | 1 µM GBD00276 (ibrutinib), % inhibition [33]: 14.99% | 1 µM GBD00276 (ibrutinib), % inhibition [34]: -2.197% | 1 µM GBD00276 (ibrutinib), % inhibition [35]: 4.583% | 1 µM GBD00276 (ibrutinib), % inhibition [36]: 11.1875% | 1 µM GBD00276 (ibrutinib), % inhibition [37]: 19.22% | 1 µM GBD00276 (ibrutinib), % inhibition [38]: 6.623%
